Assays:
α1-adrenergic receptor = α1-adrenergic receptor binding ([3H] prazosin binding site); conditions: calf cerebral cortex
Procedure: Extent of binding to the α1 -adrenergic receptor was determined by the method of Greengrass and Bremner, Eur. J. Pharmacol., 55, 323 (1979) and is expressed in Table II as Ki, representing the affinity of each compound for the [^3 H] prazosin binding site in calf cerebral cortex.

α2-adrenergic receptor = type: binding, calf; conditions: for α1/α2 (ratio of Ki): Ki α1 / Ki α2, calf cerebral cortex; for Ki: [3H] clonidine binding site, calf cerebral cortex
[1] = tested on: sedation produced by clonidine; conditions: in vivo; cited from earlier work
[2] = tested on: clonidine-induced sedation; conditions: man; cited from earlier work
[3] = tested on: locomotor depressant effects of methyldopa; conditions: rats; cited from earlier work
norepinephrine reuptake = conditions: cited from earlier work
[4] = tested on: α1- or α2-adrenergic receptors; conditions: cited from earlier work

CN1CCN(c2ncccc2Br)CC1 [Compound 2]
Ki (α1-adrenergic receptor): 160 nM | α1/α2 (ratio of Ki) (α2-adrenergic receptor): 55 | Ki (α2-adrenergic receptor): 2.9 nM

CN1CCN(c2ncccc2F)CC1 [Compound 6]
Ki (α1-adrenergic receptor): 490 nM | α1/α2 (ratio of Ki) (α2-adrenergic receptor): 98 | Ki (α2-adrenergic receptor): 5 nM

c1ccc(N2CCNCC2)nc1 [Compound 4]
Ki (α1-adrenergic receptor): 2400 nM | α1/α2 (ratio of Ki) (α2-adrenergic receptor): 65 | Ki (α2-adrenergic receptor): 37 nM

FC(F)(F)c1cccnc1N1CCNCC1 [Compound 3]
Ki (α1-adrenergic receptor): 2850 nM | α1/α2 (ratio of Ki) (α2-adrenergic receptor): 29 | Ki (α2-adrenergic receptor): 97 nM

O=[N+]([O-])c1cccnc1N1CCNCC1 [Compound 5, 1-(3-Nitro-2-pyridinyl)piperazine]
Ki (α1-adrenergic receptor): 3800 nM | α1/α2 (ratio of Ki) (α2-adrenergic receptor): 146 | Ki (α2-adrenergic receptor): 26 nM

Cl.Cl.Ic1cccnc1N1CCNCC1 [Compound 1, 1-(3-Iodo-2-pyridinyl)piperazine Dihydrochloride]
Ki (α1-adrenergic receptor): 1600 nM | α1/α2 (ratio of Ki) (α2-adrenergic receptor): 38 | Ki (α2-adrenergic receptor): 42 nM

COC(=O)[C@@H]1[C@H]2C[C@H]3c4[nH]c5ccccc5c4CCN3C[C@@H]2CC[C@@H]1O [yohimbine]
effect on sedation produced by clonidine [1]: antagonizes the sedation produced by clonidine | effect on clonidine-induced sedation [2]: reduce clonidine-induced sedation in man | effect on locomotor depressant effects of methyldopa [3]: antagonizes

CN1CCN(c2ncccc2Cl)CC1 [Compound 7]
Ki (α1-adrenergic receptor): 215 nM | Ki (α2-adrenergic receptor): 2.7 nM

CN1CCN2c3ccccc3Cc3ccccc3C2C1 (centres unmarked) [Mianserin]
in vivo norepinephrine reuptake inhibiting properties (norepinephrine reuptake): minimal | blockade of α2-adrenergic receptors [4]: blocks α2 -adrenergic receptors | selectivity for α1- or α2-adrenergic receptors ([4]; in vivo blockade suggested at about the same dose): fails to exhibit any important selectivity
